{"source": "PubChem BioAssay (NCI)", "assay_in_all_cases": "NCI tumour cell line growth inhibition, 48 h", "key": {"P388 leukemia": {"test_system": "P388 leukemia"}, "P388/ADR leukemia": {"test_system": "P388/ADR leukemia"}, "SN12K1 renal": {"test_system": "SN12K1 renal"}}, "note": "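1) Cells in 96-well plates. 2) Compound, 48 h, 5 concentrations. 3) Linear interpolation between surrounding doses. 4) Unreached endpoint = highest concentration. TGI is the concentration that stops growth completely.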"}
{"smiles": "C=C1[C@@H](C)[C@H]2[C@H](Cc3ccccc3)NC(=O)[C@]23OC(=O)/C=C/[C@H](O)CCC[C@@H](C)C/C=C/[C@H]3[C@@H]1O", "values": [{"measurement": "TGI", "setting": "P388 leukemia", "result": "> 87.1", "unit": "µM"}, {"measurement": "TGI", "setting": "P388/ADR leukemia", "result": 73.4, "unit": "µM"}, {"measurement": "TGI", "setting": "SN12K1 renal", "result": 41.1, "unit": "µM"}]}
